Tests used:
[1] = test system: PBMC; assay: Antiinflammatory activity in human PBMCs assessed as inhibition of LPS-induced IL6 release at 100 uM incubated for 15 mins prior to LPS challenge measured after 24 hrs by HTRF assay relative to control; assay type: functional
[2] = test system: PBMC; assay: Antiinflammatory activity in human PBMCs assessed as inhibition of LPS-induced IL1-beta release at 100 uM incubated for 15 mins prior to LPS challenge measured after 24 hrs by HTRF assay relative to control; assay type: functional
[3] = test system: PBMC; assay: Antiinflammatory activity in human PBMCs assessed as inhibition of LPS-induced TNFalpha release at 100 uM incubated for 15 mins prior to LPS challenge measured after 24 hrs by HTRF assay relative to control; assay type: functional
[4] = test system: PBMC; assay: Antiinflammatory activity in human PBMCs assessed as inhibition of LPS-induced IL6 release incubated for 15 mins prior to LPS challenge measured after 24 hrs by HTRF assay; assay type: functional, cell-based
[5] = test system: PBMC; assay: Antiinflammatory activity in human PBMCs assessed as inhibition of LPS-induced IL1-beta release incubated for 15 mins prior to LPS challenge measured after 24 hrs by HTRF assay; assay type: functional, cell-based
[6] = test system: PBMC; assay: Antiinflammatory activity in human PBMCs assessed as inhibition of LPS-induced TNFalpha release incubated for 15 mins prior to LPS challenge measured after 24 hrs by HTRF assay; assay type: functional, cell-based
[7] = AUC in CD1 mouse at 10 mg/kg, po; assay type: ADME, organism-based; set-up: dose 10 mg/kg, route oral; settings: plasma
[8] = Oral bioavailability in CD1 mouse at 10 mg/kg; assay type: ADME, organism-based; settings: in vivo
[9] = Terminal half life in CD1 mouse at 10 mg/kg, po; assay type: ADME, organism-based; set-up: dose 10 mg/kg, route oral; settings: in vivo, read-out: beta t1/2 (converted)
[10] = Cmax in CD1 mouse at 10 mg/kg, po; assay type: ADME, organism-based; set-up: dose 10 mg/kg, route oral; settings: in vivo
[11] = Tmax in CD1 mouse at 10 mg/kg, po; assay type: ADME, organism-based; set-up: dose 10 mg/kg, route oral; settings: in vivo
[12] = AUC in CD1 mouse at 5 mg/kg, iv; assay type: ADME, organism-based; set-up: dose 5 mg/kg, route intravenous; settings: plasma
[13] = Terminal half life in CD1 mouse at 5 mg/kg, iv; assay type: ADME, organism-based; set-up: dose 5 mg/kg, route intravenous; settings: in vivo, read-out: beta t1/2 (converted)
[14] = Clearance in CD1 mouse at 5 mg/kg, iv; assay type: ADME, organism-based; set-up: dose 5 mg/kg, route intravenous; settings: in vivo
[15] = Volume of distribution at steady state in CD1 mouse at 5 mg/kg, iv; assay type: ADME, organism-based; set-up: dose 5 mg/kg, route intravenous; settings: in vivo, read-out: Vdss
[16] = test system: PBMC; assay: Antiinflammatory activity in human PBMCs assessed as inhibition of LPS-induced IL6 release at 10 uM incubated for 15 mins prior to LPS challenge measured after 24 hrs by HTRF assay relative to control; assay type: functional

OB1OCc2ccc(Oc3cccc(CN4CCOCC4)c3)cc21
inhibition at 100 µM [1]: < 40%
inhibition at 100 µM [2]: 40%
inhibition at 100 µM [3]: 80%
IC50 [4]: > 10 µM
IC50 [5]: 4.4 µM
IC50 [6]: 5.9 µM

Cl.NCc1ccc(Oc2ccc3c(c2)B(O)OC3)c(F)c1
AUC [7]: 533 ng·h/mL
bioavailability [8]: 15%
half-life [9]: 2.43 h
Cmax [10]: 142 ng/mL
Tmax [11]: 0.25 h
AUC [12]: 1740 ng·h/mL
half-life [13]: 0.65 h
clearance [14]: 38 mL/min/kg
Vd [15]: 2.14 L/kg
inhibition at 100 µM [1]: 80%
inhibition at 100 µM [2]: 80%
inhibition at 100 µM [3]: 80%
IC50 [4]: 0.033 µM
IC50 [5]: 0.043 µM
IC50 [6]: 0.041 µM

C[C@@H]1C[C@H]2[C@@H]3CCC4=CC(=O)C=C[C@]4(C)[C@@]3(F)[C@@H](O)C[C@]2(C)[C@@]1(O)C(=O)CO [DEXAMETHASONE]
inhibition at 10 µM [16]: 43%
inhibition at 100 µM [2]: 80%
inhibition at 100 µM [3]: 80%
IC50 [5]: 0.0095 µM
IC50 [6]: 0.017 µM

Cl.NCc1ccc(Oc2ccc3c(c2)B(O)OC3)c(Cl)c1
AUC [7]: 2660 ng·h/mL
bioavailability [8]: 67%
half-life [9]: 2.82 h
Cmax [10]: 1450 ng/mL
Tmax [11]: 0.25 h
AUC [12]: 2260 ng·h/mL
half-life [13]: 1.39 h
clearance [14]: 36.8 mL/min/kg
Vd [15]: 2.87 L/kg

C[S+]([O-])c1ccc(-c2nc(-c3ccc(F)cc3)c(-c3ccncc3)[nH]2)cc1 (stereo not drawn) [SB-203580]
inhibition at 100 µM [1]: < 40%
inhibition at 100 µM [2]: 80%
inhibition at 100 µM [3]: 80%
IC50 [4]: > 10 µM
IC50 [5]: 0.34 µM
IC50 [6]: 1 µM

Nc1cccc(Oc2ccc3c(c2)B(O)OC3)c1
inhibition at 100 µM [1]: < 40%
inhibition at 100 µM [2]: < 40%
IC50 [4]: > 10 µM
IC50 [5]: > 10 µM
IC50 [6]: > 10 µM

C[C@H]1C[C@H]2[C@@H]3CCC4=CC(=O)C=C[C@]4(C)[C@@]3(F)[C@@H](O)C[C@]2(C)[C@@]1(O)C(=O)CCl [CLOBETASOL]
inhibition at 100 µM [1]: 80%
inhibition at 100 µM [2]: 80%
inhibition at 100 µM [3]: 80%
IC50 [4]: 4.2 µM
IC50 [5]: 4.4 µM
IC50 [6]: 0.007 µM

CN1CCN(Cc2cccc(Oc3ccc4c(c3)B(O)OC4)c2)CC1
inhibition at 100 µM [1]: < 40%
inhibition at 100 µM [2]: 40%
inhibition at 100 µM [3]: < 40%
IC50 [4]: > 10 µM
IC50 [5]: 7.1 µM
IC50 [6]: > 10 µM
